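In this assay, cells in 96-well plates receive the compound at five concentrations for 48 hours. Endpoints are linearly interpolated between the surrounding concentrations. TGI marks complete inhibition of growth.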
Experiments:
Experiment in all cases: NCI-60 cell line screen, 48 h
UO-31 renal = test system: UO-31 renal
SF-539 CNS = test system: SF-539 CNS
SN12C renal = test system: SN12C renal
SK-OV-3 ovarian = test system: SK-OV-3 ovarian
SNB-19 CNS = test system: SNB-19 CNS
NCI-H23 lung = test system: NCI-H23 lung
HT29 colon = test system: HT29 colon
NCI-H460 lung = test system: NCI-H460 lung
A549 NSCLC = test system: A549 NSCLC
KM20L2 colon = test system: KM20L2 colon
NCI-H226 lung = test system: NCI-H226 lung
HOP-18 NSCLC = test system: HOP-18 NSCLC
LOX IMVI melanoma = test system: LOX IMVI melanoma
MOLT-4 leukemia = test system: MOLT-4 leukemia
K-562 leukemia = test system: K-562 leukemia
HOP-62 NSCLC = test system: HOP-62 NSCLC
U251 CNS = test system: U251 CNS
OVCAR-5 ovarian = test system: OVCAR-5 ovarian
DLD-1 colon = test system: DLD-1 colon
HOP-92 NSCLC = test system: HOP-92 NSCLC
SNB-75 CNS = test system: SNB-75 CNS
EKVX NSCLC = test system: EKVX NSCLC
DMS 273 small cell lung = test system: DMS 273 small cell lung
SR leukemia = test system: SR leukemia
OVCAR-4 ovarian = test system: OVCAR-4 ovarian
COLO 205 colon = test system: COLO 205 colon
HCT-116 colon = test system: HCT-116 colon
M19-MEL melanoma = test system: M19-MEL melanoma
MALME-3M melanoma = test system: MALME-3M melanoma
TK-10 renal = test system: TK-10 renal
SF-295 CNS = test system: SF-295 CNS
UACC-257 melanoma = test system: UACC-257 melanoma
SNB-78 CNS = test system: SNB-78 CNS
HCT-15 colon = test system: HCT-15 colon
HL-60(TB) leukemia = test system: HL-60(TB) leukemia
786-0 renal = test system: 786-0 renal
SK-MEL-2 melanoma = test system: SK-MEL-2 melanoma
SK-MEL-5 melanoma = test system: SK-MEL-5 melanoma
CCRF-CEM leukemia = test system: CCRF-CEM leukemia
SK-MEL-28 melanoma = test system: SK-MEL-28 melanoma
NCI-H522 lung = test system: NCI-H522 lung
ACHN renal = test system: ACHN renal
UACC-62 melanoma = test system: UACC-62 melanoma
RXF 393 renal = test system: RXF 393 renal
SW-620 colon = test system: SW-620 colon
RPMI-8226 leukemia = test system: RPMI-8226 leukemia
DMS 114 small cell lung = test system: DMS 114 small cell lung
CAKI-1 renal = test system: CAKI-1 renal
OVCAR-8 ovarian = test system: OVCAR-8 ovarian
HCC-2998 colon = test system: HCC-2998 colon
LXFL 529 NSCLC = test system: LXFL 529 NSCLC
KM12 colon = test system: KM12 colon
M14 melanoma = test system: M14 melanoma
SF-268 CNS = test system: SF-268 CNS
OVCAR-3 ovarian = test system: OVCAR-3 ovarian
XF 498 CNS = test system: XF 498 CNS
A498 renal = test system: A498 renal
IGROV1 ovarian = test system: IGROV1 ovarian

Measured: TGI

COc1cc(/C=C(\C#N)C(=O)c2ccccc2)cc(OC)c1OC
96.8 µM: RXF 393 renal
> 100 µM: UO-31 renal | SF-539 CNS | SN12C renal | SK-OV-3 ovarian | SNB-19 CNS | NCI-H23 lung | HT29 colon | NCI-H460 lung | A549 NSCLC | KM20L2 colon | NCI-H226 lung | HOP-18 NSCLC | LOX IMVI melanoma | MOLT-4 leukemia | K-562 leukemia | HOP-62 NSCLC | U251 CNS | OVCAR-5 ovarian | DLD-1 colon | HOP-92 NSCLC | SNB-75 CNS | EKVX NSCLC | DMS 273 small cell lung | SR leukemia | OVCAR-4 ovarian | COLO 205 colon | HCT-116 colon | M19-MEL melanoma | MALME-3M melanoma | TK-10 renal | SF-295 CNS | UACC-257 melanoma | SNB-78 CNS | HCT-15 colon | HL-60(TB) leukemia | 786-0 renal | SK-MEL-2 melanoma | SK-MEL-5 melanoma | CCRF-CEM leukemia | SK-MEL-28 melanoma | NCI-H522 lung | ACHN renal | UACC-62 melanoma | SW-620 colon | RPMI-8226 leukemia | DMS 114 small cell lung | CAKI-1 renal | OVCAR-8 ovarian | HCC-2998 colon | LXFL 529 NSCLC | KM12 colon | M14 melanoma | SF-268 CNS | OVCAR-3 ovarian

COc1cc2c(cc1O)CCN[C@@]21CS[C@H]2c3c(OC(C)=O)c(C)c4c(c3C(COC1=O)N1C2C2NC(Cc3cc(C)c(OC)c(O)c32)[C@@H]1C#N)OCO4 (some centres not stated)
0.104 µM: SF-268 CNS
0.162 µM: 786-0 renal
0.271 µM: DLD-1 colon
0.444 µM: U251 CNS
61 µM: TK-10 renal
0.111 µM: LXFL 529 NSCLC
1.06 µM: SW-620 colon
0.115 µM: SN12C renal
1.14 µM: HCT-116 colon
0.16 µM: HT29 colon
0.0209 µM: HL-60(TB) leukemia
0.0525 µM: CCRF-CEM leukemia
< 0.01 µM: SF-539 CNS | NCI-H23 lung | KM20L2 colon | NCI-H226 lung | MOLT-4 leukemia | XF 498 CNS | SNB-75 CNS | OVCAR-4 ovarian | M19-MEL melanoma | MALME-3M melanoma | SK-MEL-2 melanoma | SK-MEL-5 melanoma | UACC-62 melanoma | RXF 393 renal | DMS 114 small cell lung | HCC-2998 colon | M14 melanoma
> 100 µM: SR leukemia
0.0107 µM: HOP-62 NSCLC
0.125 µM: EKVX NSCLC
1.87 µM: SNB-19 CNS
0.0268 µM: SK-MEL-28 melanoma
0.017 µM: RPMI-8226 leukemia
0.721 µM: ACHN renal

CCCCP1(=O)C=CC(Cl)=C(C)C1 (configuration not stated)
> 100 µM: UO-31 renal | SF-539 CNS | SN12C renal | NCI-H23 lung | HT29 colon | NCI-H460 lung | A549 NSCLC | KM20L2 colon | HOP-18 NSCLC | MOLT-4 leukemia | K-562 leukemia | HOP-62 NSCLC | U251 CNS | OVCAR-5 ovarian | DLD-1 colon | HOP-92 NSCLC | EKVX NSCLC | OVCAR-4 ovarian | COLO 205 colon | HCT-116 colon | M19-MEL melanoma | MALME-3M melanoma | TK-10 renal | SF-295 CNS | UACC-257 melanoma | SNB-78 CNS | HCT-15 colon | HL-60(TB) leukemia | 786-0 renal | SK-MEL-2 melanoma | SK-MEL-5 melanoma | CCRF-CEM leukemia | SK-MEL-28 melanoma | NCI-H522 lung | ACHN renal | UACC-62 melanoma | RXF 393 renal | SW-620 colon | A498 renal | IGROV1 ovarian | OVCAR-8 ovarian | HCC-2998 colon | LXFL 529 NSCLC | KM12 colon | M14 melanoma | SF-268 CNS | OVCAR-3 ovarian

CC1(C)OC(COP2OCCO2)[C@H](COP2OCCO2)O1 (some centres not stated)
> 100 µM: SF-539 CNS | SN12C renal | NCI-H23 lung | HT29 colon | NCI-H460 lung | A549 NSCLC | NCI-H226 lung | HOP-18 NSCLC | LOX IMVI melanoma | MOLT-4 leukemia | K-562 leukemia | SNB-75 CNS | DMS 273 small cell lung | OVCAR-4 ovarian | HCT-116 colon | M19-MEL melanoma | MALME-3M melanoma | TK-10 renal | SF-295 CNS | UACC-257 melanoma | SNB-78 CNS | HCT-15 colon | HL-60(TB) leukemia | SK-MEL-2 melanoma | SK-MEL-5 melanoma | CCRF-CEM leukemia | SK-MEL-28 melanoma | ACHN renal | UACC-62 melanoma | RXF 393 renal | SW-620 colon | A498 renal | DMS 114 small cell lung | IGROV1 ovarian | OVCAR-8 ovarian | LXFL 529 NSCLC | KM12 colon | M14 melanoma | SF-268 CNS | OVCAR-3 ovarian

O=C(NC(=Nc1ccccc1)SCCSC(=Nc1ccccc1)NC(=O)c1ccccc1)c1ccccc1
73 µM: NCI-H522 lung
58.7 µM: HOP-92 NSCLC
95.6 µM: RXF 393 renal
88.2 µM: UO-31 renal
> 100 µM: SF-539 CNS | SN12C renal | SNB-19 CNS | NCI-H23 lung | HT29 colon | NCI-H460 lung | A549 NSCLC | KM20L2 colon | NCI-H226 lung | LOX IMVI melanoma | MOLT-4 leukemia | XF 498 CNS | K-562 leukemia | HOP-62 NSCLC | U251 CNS | OVCAR-5 ovarian | DLD-1 colon | SNB-75 CNS | EKVX NSCLC | DMS 273 small cell lung | OVCAR-4 ovarian | COLO 205 colon | HCT-116 colon | M19-MEL melanoma | MALME-3M melanoma | TK-10 renal | SF-295 CNS | UACC-257 melanoma | SNB-78 CNS | HCT-15 colon | 786-0 renal | SK-MEL-2 melanoma | SK-MEL-5 melanoma | CCRF-CEM leukemia | SK-MEL-28 melanoma | ACHN renal | UACC-62 melanoma | SW-620 colon | A498 renal | RPMI-8226 leukemia | DMS 114 small cell lung | IGROV1 ovarian | CAKI-1 renal | OVCAR-8 ovarian | HCC-2998 colon | LXFL 529 NSCLC | KM12 colon | M14 melanoma | SF-268 CNS | OVCAR-3 ovarian

Reference: PubChem BioAssay (NCI)
